Literature values in US20100310668A1, “PHARMACEUTICAL COMPOSITIONS COMPRISING N-[2-(DIETHYLAMINO)ETHYL]-5-[(5-FLUORO-1,2-DIHYDRO-2-OXO-3H-INDOL-3-YLIDENE)METHYL]-2,4-DIMETHYL-1H-PYRROLE-3-CARBOXAMIDE” (ratiopharm GmbH, priority 2008, published 2010).

Conditions: solid (crystalline) form obtained by known manufacturing processes

solubility in water: poor
SMILES: CCN(CC)CCNC(=O)c1c(C)[nH]c(/C=C2\C(=O)Nc3ccc(F)cc32)c1C [compound I, N-[2-(diethylamino)ethyl]-5-[(5-fluoro-1,2-dihydro-2-oxo-3H-indol-3-ylidene)methyl]-2,4-dimethyl-1H-pyrrole-3-carboxamide]
